Experimental data taken from the kinase profiling compilation of Christmann-Franck et al. (2016).

biological target: ZAP70 (human) (UniProt P43403); assay: radiometric filter-binding kinase assay, Kinase HotSpot; conditions: compound 0.5 µM; ATP 10 µM

With `COc1cc2nccc(Oc3ccc(NC(=S)NC(=O)c4ccccc4C)cc3)c2cc1OC` as the molecule, how does the residual activity read?
The residual activity was 97%.

For `CCN1/C(=C/C(C)=O)Sc2ccc(OC)cc21`, which residual activity is on record?
The residual activity was 103%.

With `O=c1cc(-c2cccc3c2Sc2ccccc2S3)oc(N2CCOCC2)c1` as the molecule, how does the residual activity read?
The residual activity was 97.1%.

biological target: IRAK1 (human) (UniProt P51617); assay: as above; conditions: compound 0.5 µM; ATP 10 µM

Which residual activity does the source give for `COc1cc2nccc(Oc3ccc(NC(=S)NC(=O)c4ccccc4C)cc3)c2cc1OC` here?
The residual activity was 99.6%.

Which residual activity does the source give for `CCN1/C(=C/C(C)=O)Sc2ccc(OC)cc21` here?
The residual activity was 114%.

Which residual activity does the source give for `O=c1cc(-c2cccc3c2Sc2ccccc2S3)oc(N2CCOCC2)c1` here?
The residual activity was 103%.

biological target: LTK (human) (UniProt P29376); assay: as above; conditions: compound 0.5 µM; ATP 10 µM

`COc1cc2nccc(Oc3ccc(NC(=S)NC(=O)c4ccccc4C)cc3)c2cc1OC` was tested. Which residual activity did it give?
The residual activity was 86.1%.

For `CCN1/C(=C/C(C)=O)Sc2ccc(OC)cc21`, which residual activity is on record?
Its residual activity is 87.1%.

With `O=c1cc(-c2cccc3c2Sc2ccccc2S3)oc(N2CCOCC2)c1` as the molecule, how does the residual activity read?
Its residual activity is 94.1%.

biological target: CSNK1E (human) (UniProt P49674); assay: as above; conditions: compound 0.5 µM; ATP 10 µM
Sequence (P49674 whole entry, looked up): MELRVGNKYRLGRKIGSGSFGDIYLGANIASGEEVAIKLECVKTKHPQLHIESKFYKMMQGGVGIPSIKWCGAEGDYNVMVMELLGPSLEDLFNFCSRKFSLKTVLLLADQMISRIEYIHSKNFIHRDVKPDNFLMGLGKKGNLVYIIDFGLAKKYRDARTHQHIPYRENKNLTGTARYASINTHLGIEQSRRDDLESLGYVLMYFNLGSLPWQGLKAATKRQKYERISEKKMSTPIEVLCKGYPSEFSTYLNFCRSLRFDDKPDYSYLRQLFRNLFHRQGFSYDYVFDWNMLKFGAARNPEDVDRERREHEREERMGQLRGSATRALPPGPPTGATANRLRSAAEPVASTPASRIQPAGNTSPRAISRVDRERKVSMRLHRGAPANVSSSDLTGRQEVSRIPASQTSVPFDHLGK

For `COc1cc2nccc(Oc3ccc(NC(=S)NC(=O)c4ccccc4C)cc3)c2cc1OC`, which residual activity is on record?
Its residual activity is 95.1%.

`CCN1/C(=C/C(C)=O)Sc2ccc(OC)cc21` was tested. Which residual activity did it give?
The residual activity was 60.1%.

With `O=c1cc(-c2cccc3c2Sc2ccccc2S3)oc(N2CCOCC2)c1` as the molecule, how does the residual activity read?
The residual activity was 104%.

biological target: MAP3K9 (human) (UniProt P80192); assay: as above; conditions: compound 0.5 µM; ATP 10 µM

For `COc1cc2nccc(Oc3ccc(NC(=S)NC(=O)c4ccccc4C)cc3)c2cc1OC`, which residual activity is on record?
The residual activity was 99.3%.

Which residual activity does the source give for `CCN1/C(=C/C(C)=O)Sc2ccc(OC)cc21` here?
Its residual activity is 98.8%.

`O=c1cc(-c2cccc3c2Sc2ccccc2S3)oc(N2CCOCC2)c1` was tested. Which residual activity did it give?
The residual activity was 95.5%.

biological target: SRPK3 (human) (UniProt Q9UPE1); assay: as above; conditions: compound 0.5 µM; ATP 10 µM
Sequence (Q9UPE1 whole entry, looked up): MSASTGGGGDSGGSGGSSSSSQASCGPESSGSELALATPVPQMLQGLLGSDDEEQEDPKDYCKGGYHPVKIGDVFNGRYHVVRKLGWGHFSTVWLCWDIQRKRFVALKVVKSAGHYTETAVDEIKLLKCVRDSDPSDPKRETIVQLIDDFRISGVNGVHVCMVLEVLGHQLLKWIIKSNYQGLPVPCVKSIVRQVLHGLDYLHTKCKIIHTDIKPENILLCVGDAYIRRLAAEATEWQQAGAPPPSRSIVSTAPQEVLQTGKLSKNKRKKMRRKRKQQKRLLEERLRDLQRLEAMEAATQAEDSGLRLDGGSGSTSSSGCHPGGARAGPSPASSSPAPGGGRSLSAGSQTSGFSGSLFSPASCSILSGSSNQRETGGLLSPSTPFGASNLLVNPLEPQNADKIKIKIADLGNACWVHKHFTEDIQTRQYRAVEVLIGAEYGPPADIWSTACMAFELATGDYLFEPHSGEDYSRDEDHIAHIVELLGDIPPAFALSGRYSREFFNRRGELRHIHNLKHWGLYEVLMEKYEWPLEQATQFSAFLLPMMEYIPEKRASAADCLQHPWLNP

Which residual activity does the source give for `COc1cc2nccc(Oc3ccc(NC(=S)NC(=O)c4ccccc4C)cc3)c2cc1OC` here?
Its residual activity is 95.9%.

Which residual activity does the source give for `CCN1/C(=C/C(C)=O)Sc2ccc(OC)cc21` here?
The residual activity was 95%.

How did the residual activity turn out when `O=c1cc(-c2cccc3c2Sc2ccccc2S3)oc(N2CCOCC2)c1` was run?
Its residual activity is 99.6%.

biological target: PIM2 (human) (UniProt Q9P1W9); assay: as above; conditions: compound 0.5 µM; ATP 10 µM
Sequence (Q9P1W9 whole entry, looked up): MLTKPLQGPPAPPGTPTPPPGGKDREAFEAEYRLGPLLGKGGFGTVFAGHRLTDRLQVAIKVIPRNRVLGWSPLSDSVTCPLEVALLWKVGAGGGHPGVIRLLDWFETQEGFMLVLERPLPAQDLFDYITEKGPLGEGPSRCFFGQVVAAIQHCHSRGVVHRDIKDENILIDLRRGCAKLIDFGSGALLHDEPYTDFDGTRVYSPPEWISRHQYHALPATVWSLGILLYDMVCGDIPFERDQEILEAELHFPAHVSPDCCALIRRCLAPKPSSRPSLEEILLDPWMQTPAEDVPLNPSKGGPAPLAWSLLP

`COc1cc2nccc(Oc3ccc(NC(=S)NC(=O)c4ccccc4C)cc3)c2cc1OC` was tested. Which residual activity did it give?
Its residual activity is 117%.

With `CCN1/C(=C/C(C)=O)Sc2ccc(OC)cc21` as the molecule, how does the residual activity read?
Its residual activity is 102%.

`O=c1cc(-c2cccc3c2Sc2ccccc2S3)oc(N2CCOCC2)c1` was tested. Which residual activity did it give?
The residual activity was 118%.

biological target: NUAK1 (human) (UniProt O60285); assay: as above; conditions: compound 0.5 µM; ATP 10 µM
Sequence (O60285 whole entry, looked up): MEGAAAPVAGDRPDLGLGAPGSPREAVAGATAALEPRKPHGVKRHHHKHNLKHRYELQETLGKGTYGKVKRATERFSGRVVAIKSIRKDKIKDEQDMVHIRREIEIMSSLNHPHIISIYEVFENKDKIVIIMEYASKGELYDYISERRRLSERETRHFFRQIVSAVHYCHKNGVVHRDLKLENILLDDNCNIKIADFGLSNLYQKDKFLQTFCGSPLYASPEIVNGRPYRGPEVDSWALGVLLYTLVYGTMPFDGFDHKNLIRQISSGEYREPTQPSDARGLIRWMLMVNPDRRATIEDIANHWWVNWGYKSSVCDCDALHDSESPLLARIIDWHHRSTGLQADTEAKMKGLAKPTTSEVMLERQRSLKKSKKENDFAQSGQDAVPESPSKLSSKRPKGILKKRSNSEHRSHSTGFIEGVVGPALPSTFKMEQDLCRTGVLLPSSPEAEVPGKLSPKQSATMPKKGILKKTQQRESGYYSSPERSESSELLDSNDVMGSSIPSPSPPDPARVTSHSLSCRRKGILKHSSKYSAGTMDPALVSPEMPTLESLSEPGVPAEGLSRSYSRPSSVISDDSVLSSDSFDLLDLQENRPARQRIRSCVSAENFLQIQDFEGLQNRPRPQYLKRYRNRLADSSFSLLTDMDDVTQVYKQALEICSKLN

With `COc1cc2nccc(Oc3ccc(NC(=S)NC(=O)c4ccccc4C)cc3)c2cc1OC` as the molecule, how does the residual activity read?
The residual activity was 82.5%.

With `CCN1/C(=C/C(C)=O)Sc2ccc(OC)cc21` as the molecule, how does the residual activity read?
The residual activity was 93.4%.

With `O=c1cc(-c2cccc3c2Sc2ccccc2S3)oc(N2CCOCC2)c1` as the molecule, how does the residual activity read?
The residual activity was 93.1%.

biological target: CAMKK1 (human) (UniProt Q8N5S9); assay: as above; conditions: compound 0.5 µM; ATP 10 µM

`COc1cc2nccc(Oc3ccc(NC(=S)NC(=O)c4ccccc4C)cc3)c2cc1OC` was tested. Which residual activity did it give?
The residual activity was 91.2%.

`CCN1/C(=C/C(C)=O)Sc2ccc(OC)cc21` was tested. Which residual activity did it give?
Its residual activity is 105%.

`O=c1cc(-c2cccc3c2Sc2ccccc2S3)oc(N2CCOCC2)c1` was tested. Which residual activity did it give?
The residual activity was 112%.

biological target: RPS6KA5 KD2 (human) (UniProt O75582); assay: as above; conditions: compound 0.5 µM; ATP 10 µM
Sequence (O75582 whole entry, looked up): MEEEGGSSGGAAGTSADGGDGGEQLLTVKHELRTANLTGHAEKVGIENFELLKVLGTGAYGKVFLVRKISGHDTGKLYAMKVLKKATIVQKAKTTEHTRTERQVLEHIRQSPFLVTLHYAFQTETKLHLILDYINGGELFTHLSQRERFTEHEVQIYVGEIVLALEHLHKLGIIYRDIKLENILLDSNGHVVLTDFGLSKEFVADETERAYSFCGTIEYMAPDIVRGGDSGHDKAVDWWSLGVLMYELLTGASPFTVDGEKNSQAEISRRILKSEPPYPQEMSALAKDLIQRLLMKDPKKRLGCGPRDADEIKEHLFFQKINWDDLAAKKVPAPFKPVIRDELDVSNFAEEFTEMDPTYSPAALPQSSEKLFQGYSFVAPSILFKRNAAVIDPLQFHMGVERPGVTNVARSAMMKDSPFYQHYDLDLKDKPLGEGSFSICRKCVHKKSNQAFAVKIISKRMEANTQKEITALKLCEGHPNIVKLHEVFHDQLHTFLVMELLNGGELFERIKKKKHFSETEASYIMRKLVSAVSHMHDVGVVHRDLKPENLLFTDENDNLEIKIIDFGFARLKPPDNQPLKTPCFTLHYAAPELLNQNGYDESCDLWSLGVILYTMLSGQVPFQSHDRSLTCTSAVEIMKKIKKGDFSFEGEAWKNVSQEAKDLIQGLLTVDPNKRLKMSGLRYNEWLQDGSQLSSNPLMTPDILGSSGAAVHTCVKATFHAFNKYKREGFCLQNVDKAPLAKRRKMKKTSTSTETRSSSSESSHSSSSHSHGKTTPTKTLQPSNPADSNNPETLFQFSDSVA

With `COc1cc2nccc(Oc3ccc(NC(=S)NC(=O)c4ccccc4C)cc3)c2cc1OC` as the molecule, how does the residual activity read?
Its residual activity is 95.3%.

Which residual activity does the source give for `CCN1/C(=C/C(C)=O)Sc2ccc(OC)cc21` here?
Its residual activity is 87.4%.

Which residual activity does the source give for `O=c1cc(-c2cccc3c2Sc2ccccc2S3)oc(N2CCOCC2)c1` here?
Its residual activity is 117%.

biological target: MLTK (human) (UniProt Q9NYL2); assay: as above; conditions: compound 0.5 µM; ATP 10 µM

Which residual activity does the source give for `COc1cc2nccc(Oc3ccc(NC(=S)NC(=O)c4ccccc4C)cc3)c2cc1OC` here?
Its residual activity is 71.7%.

With `CCN1/C(=C/C(C)=O)Sc2ccc(OC)cc21` as the molecule, how does the residual activity read?
Its residual activity is 91%.

With `O=c1cc(-c2cccc3c2Sc2ccccc2S3)oc(N2CCOCC2)c1` as the molecule, how does the residual activity read?
The residual activity was 100%.

biological target: HCK (human) (UniProt P08631); assay: as above; conditions: compound 0.5 µM; ATP 10 µM

Which residual activity does the source give for `COc1cc2nccc(Oc3ccc(NC(=S)NC(=O)c4ccccc4C)cc3)c2cc1OC` here?
Its residual activity is 4.93%.

With `CCN1/C(=C/C(C)=O)Sc2ccc(OC)cc21` as the molecule, how does the residual activity read?
Its residual activity is 97.5%.

How did the residual activity turn out when `O=c1cc(-c2cccc3c2Sc2ccccc2S3)oc(N2CCOCC2)c1` was run?
The residual activity was 102%.

biological target: MST4 (human) (UniProt Q9P289); assay: as above; conditions: compound 0.5 µM; ATP 10 µM
Sequence (Q9P289 whole entry, looked up): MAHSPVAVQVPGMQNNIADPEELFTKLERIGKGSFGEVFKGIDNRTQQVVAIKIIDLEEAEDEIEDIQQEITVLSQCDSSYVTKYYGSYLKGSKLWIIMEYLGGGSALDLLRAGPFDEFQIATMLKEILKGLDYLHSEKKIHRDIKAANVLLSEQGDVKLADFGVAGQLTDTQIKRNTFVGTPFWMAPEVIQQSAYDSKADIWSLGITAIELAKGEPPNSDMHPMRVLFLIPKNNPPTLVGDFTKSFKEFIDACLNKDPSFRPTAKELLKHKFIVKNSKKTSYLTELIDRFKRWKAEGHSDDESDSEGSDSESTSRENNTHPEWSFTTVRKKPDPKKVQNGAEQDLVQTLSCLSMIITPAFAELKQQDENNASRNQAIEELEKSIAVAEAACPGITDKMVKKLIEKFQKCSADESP

With `COc1cc2nccc(Oc3ccc(NC(=S)NC(=O)c4ccccc4C)cc3)c2cc1OC` as the molecule, how does the residual activity read?
Its residual activity is 101%.

For `CCN1/C(=C/C(C)=O)Sc2ccc(OC)cc21`, which residual activity is on record?
The residual activity was 87.9%.

For `O=c1cc(-c2cccc3c2Sc2ccccc2S3)oc(N2CCOCC2)c1`, which residual activity is on record?
Its residual activity is 90.4%.

biological target: RAF1 (human) (UniProt P04049); assay: as above; conditions: compound 0.5 µM; ATP 10 µM

How did the residual activity turn out when `COc1cc2nccc(Oc3ccc(NC(=S)NC(=O)c4ccccc4C)cc3)c2cc1OC` was run?
The residual activity was 97%.

How did the residual activity turn out when `CCN1/C(=C/C(C)=O)Sc2ccc(OC)cc21` was run?
Its residual activity is 95.9%.

`O=c1cc(-c2cccc3c2Sc2ccccc2S3)oc(N2CCOCC2)c1` was tested. Which residual activity did it give?
The residual activity was 94.7%.

biological target: EPHA7 (human) (UniProt Q15375); assay: as above; conditions: compound 0.5 µM; ATP 10 µM

How did the residual activity turn out when `COc1cc2nccc(Oc3ccc(NC(=S)NC(=O)c4ccccc4C)cc3)c2cc1OC` was run?
The residual activity was 90.4%.

With `CCN1/C(=C/C(C)=O)Sc2ccc(OC)cc21` as the molecule, how does the residual activity read?
Its residual activity is 95.8%.

With `O=c1cc(-c2cccc3c2Sc2ccccc2S3)oc(N2CCOCC2)c1` as the molecule, how does the residual activity read?
Its residual activity is 106%.

biological target: CDK1 CCNB1 (human) (UniProt P06493+P14635); assay: as above; conditions: compound 0.5 µM; ATP 10 µM
Sequence (P06493 whole entry, looked up): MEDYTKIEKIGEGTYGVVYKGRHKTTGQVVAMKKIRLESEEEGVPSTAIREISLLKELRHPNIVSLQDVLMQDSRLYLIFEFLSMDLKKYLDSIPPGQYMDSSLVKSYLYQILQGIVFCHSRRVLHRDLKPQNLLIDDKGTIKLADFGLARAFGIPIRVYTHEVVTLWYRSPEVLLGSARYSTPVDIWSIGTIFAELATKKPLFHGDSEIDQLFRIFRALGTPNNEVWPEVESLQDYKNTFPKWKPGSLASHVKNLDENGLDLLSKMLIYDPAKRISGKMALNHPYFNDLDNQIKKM
Sequence (P14635 whole entry, looked up): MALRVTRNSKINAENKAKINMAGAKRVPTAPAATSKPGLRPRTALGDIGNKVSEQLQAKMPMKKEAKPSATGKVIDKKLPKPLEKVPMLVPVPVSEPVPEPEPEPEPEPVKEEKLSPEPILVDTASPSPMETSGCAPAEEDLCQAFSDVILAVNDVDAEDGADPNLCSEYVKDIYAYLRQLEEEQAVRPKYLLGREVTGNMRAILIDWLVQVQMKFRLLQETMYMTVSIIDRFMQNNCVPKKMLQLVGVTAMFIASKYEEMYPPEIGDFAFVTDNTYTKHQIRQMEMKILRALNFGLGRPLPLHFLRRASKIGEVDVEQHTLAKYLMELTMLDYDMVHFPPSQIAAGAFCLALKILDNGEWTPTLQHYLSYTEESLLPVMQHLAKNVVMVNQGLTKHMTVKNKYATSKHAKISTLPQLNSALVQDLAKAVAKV

Which residual activity does the source give for `COc1cc2nccc(Oc3ccc(NC(=S)NC(=O)c4ccccc4C)cc3)c2cc1OC` here?
The residual activity was 90.7%.

`CCN1/C(=C/C(C)=O)Sc2ccc(OC)cc21` was tested. Which residual activity did it give?
The residual activity was 93.2%.

For `O=c1cc(-c2cccc3c2Sc2ccccc2S3)oc(N2CCOCC2)c1`, which residual activity is on record?
The residual activity was 88.5%.

biological target: BRSK2 (human) (UniProt Q8IWQ3); assay: as above; conditions: compound 0.5 µM; ATP 10 µM
Sequence (Q8IWQ3 whole entry, looked up): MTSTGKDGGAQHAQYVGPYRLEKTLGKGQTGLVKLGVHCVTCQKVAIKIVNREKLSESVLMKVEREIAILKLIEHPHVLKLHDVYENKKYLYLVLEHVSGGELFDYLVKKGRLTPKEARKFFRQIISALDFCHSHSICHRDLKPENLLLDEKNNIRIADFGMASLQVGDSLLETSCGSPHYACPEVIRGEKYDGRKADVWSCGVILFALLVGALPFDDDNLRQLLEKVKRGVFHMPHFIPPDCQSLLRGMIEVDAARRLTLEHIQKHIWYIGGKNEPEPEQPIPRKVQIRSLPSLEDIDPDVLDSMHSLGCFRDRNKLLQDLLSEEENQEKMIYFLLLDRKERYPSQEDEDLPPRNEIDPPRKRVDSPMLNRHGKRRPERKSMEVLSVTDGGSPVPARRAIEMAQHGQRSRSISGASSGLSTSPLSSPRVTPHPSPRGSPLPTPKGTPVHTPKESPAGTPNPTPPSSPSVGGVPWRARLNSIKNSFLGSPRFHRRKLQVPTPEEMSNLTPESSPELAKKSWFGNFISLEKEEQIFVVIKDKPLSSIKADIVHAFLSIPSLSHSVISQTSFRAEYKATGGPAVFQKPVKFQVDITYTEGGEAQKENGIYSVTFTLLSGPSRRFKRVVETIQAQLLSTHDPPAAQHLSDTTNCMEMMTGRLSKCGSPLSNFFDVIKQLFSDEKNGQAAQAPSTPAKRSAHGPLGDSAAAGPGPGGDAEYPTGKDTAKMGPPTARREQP

For `COc1cc2nccc(Oc3ccc(NC(=S)NC(=O)c4ccccc4C)cc3)c2cc1OC`, which residual activity is on record?
Its residual activity is 93%.

Which residual activity does the source give for `CCN1/C(=C/C(C)=O)Sc2ccc(OC)cc21` here?
Its residual activity is 89.5%.

With `O=c1cc(-c2cccc3c2Sc2ccccc2S3)oc(N2CCOCC2)c1` as the molecule, how does the residual activity read?
The residual activity was 101%.

biological target: PRKCI (human) (UniProt P41743); assay: as above; conditions: compound 0.5 µM; ATP 10 µM

With `COc1cc2nccc(Oc3ccc(NC(=S)NC(=O)c4ccccc4C)cc3)c2cc1OC` as the molecule, how does the residual activity read?
The residual activity was 99.9%.

Which residual activity does the source give for `CCN1/C(=C/C(C)=O)Sc2ccc(OC)cc21` here?
Its residual activity is 97.8%.

Which residual activity does the source give for `O=c1cc(-c2cccc3c2Sc2ccccc2S3)oc(N2CCOCC2)c1` here?
Its residual activity is 103%.

biological target: PRKD1 (human) (UniProt Q15139); assay: as above; conditions: compound 0.5 µM; ATP 10 µM

Which residual activity does the source give for `COc1cc2nccc(Oc3ccc(NC(=S)NC(=O)c4ccccc4C)cc3)c2cc1OC` here?
Its residual activity is 137%.

For `CCN1/C(=C/C(C)=O)Sc2ccc(OC)cc21`, which residual activity is on record?
Its residual activity is 78.1%.

For `O=c1cc(-c2cccc3c2Sc2ccccc2S3)oc(N2CCOCC2)c1`, which residual activity is on record?
The residual activity was 90.3%.

biological target: ACVRL1 (human) (UniProt P37023); assay: as above; conditions: compound 0.5 µM; ATP 10 µM

For `COc1cc2nccc(Oc3ccc(NC(=S)NC(=O)c4ccccc4C)cc3)c2cc1OC`, which residual activity is on record?
Its residual activity is 91.7%.

How did the residual activity turn out when `CCN1/C(=C/C(C)=O)Sc2ccc(OC)cc21` was run?
Its residual activity is 102%.

Which residual activity does the source give for `O=c1cc(-c2cccc3c2Sc2ccccc2S3)oc(N2CCOCC2)c1` here?
Its residual activity is 99.9%.

biological target: CDK9 CCNK (human) (UniProt O75909+P50750); assay: as above; conditions: compound 0.5 µM; ATP 10 µM

Which residual activity does the source give for `COc1cc2nccc(Oc3ccc(NC(=S)NC(=O)c4ccccc4C)cc3)c2cc1OC` here?
Its residual activity is 108%.

How did the residual activity turn out when `CCN1/C(=C/C(C)=O)Sc2ccc(OC)cc21` was run?
The residual activity was 86.2%.

How did the residual activity turn out when `O=c1cc(-c2cccc3c2Sc2ccccc2S3)oc(N2CCOCC2)c1` was run?
The residual activity was 109%.
